Results: patent US12668589B2, “N-formamidopyrazoline derivative as P2X3 receptor antagonist and use thereof” (HANGZHOU WESTAN PHARMACEUTICAL TECHNOLOGY CO., LTD, priority 2020, dated 2026)

Target: T1, human P2X3 (Homo sapiens, UniProt P56373)
T1 sequence (P56373 1-397): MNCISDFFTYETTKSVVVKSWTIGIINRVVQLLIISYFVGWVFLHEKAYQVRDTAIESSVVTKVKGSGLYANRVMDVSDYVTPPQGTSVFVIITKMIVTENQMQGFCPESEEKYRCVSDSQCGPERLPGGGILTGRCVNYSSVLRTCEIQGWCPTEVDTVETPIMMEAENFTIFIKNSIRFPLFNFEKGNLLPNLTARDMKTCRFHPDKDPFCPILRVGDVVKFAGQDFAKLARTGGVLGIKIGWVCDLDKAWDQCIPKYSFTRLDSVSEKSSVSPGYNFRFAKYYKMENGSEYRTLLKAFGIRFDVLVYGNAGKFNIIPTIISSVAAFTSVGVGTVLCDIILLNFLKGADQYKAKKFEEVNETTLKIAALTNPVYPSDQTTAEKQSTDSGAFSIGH
Assay: cell-based

## COC(=O)N(C)[C@H]1CN(C(=O)N[C@H](C)c2ccc(C(F)(F)F)nc2)N=C1c1ccc(OC)cc1 [Compound 16, (S)-4-(N-methyl-N-methoxycarbonylamino)-3-(4-methoxyphenyl)-N-((R)-1-(6-(trifluoromethyl)pyridin-3-yl)ethyl)-4,5-dihydro-1H-pyrazol-1-carboxamide]
  IC50: 0.132 µM

## COC(=O)N(C)[C@@H]1CN(C(=O)N[C@H](C)c2ccc(C(F)(F)F)nc2)N=C1c1ccc(OC)cc1 [Compound 16a, (R)-4-(N-methyl-N-methoxycarbonylamino)-3-(4-methoxyphenyl)-N-((R)-1-(6-(trifluoromethyl)pyridin-3-yl)ethyl)-4,5-dihydro-1H-pyrazol-1-carboxamide]
  IC50: 0.088 µM

## CC(=O)N1CCN([C@H]2CN(C(=O)N[C@H](C)c3ccc(C(F)(F)F)nc3)N=C2c2ccc(C)cc2)C1=O [Compound 18, (S)-4-(3-acetyl-2-oxoimidazolidin-1-yl)-3-(4-methylphenyl)-N-((R)-1-(6-(trifluoromethyl)pyridin-3-yl)ethyl)-4,5-dihydro-1H-pyrazol-1-carboxamide]
  IC50: 0.173 µM

## CC(=O)N1CCN([C@@H]2CN(C(=O)N[C@H](C)c3ccc(C(F)(F)F)nc3)N=C2c2ccc(C)cc2)C1=O [Compound 18a, (R)-4-(3-acetyl-2-oxoimidazolidin-1-yl)-3-(4-methylphenyl)-N-((R)-1-(6-(trifluoromethyl)pyridin-3-yl)ethyl)-4,5-dihydro-1H-pyrazol-1-carboxamide]
  IC50: 0.095 µM

## CC(=O)N1CCN([C@H]2CN(C(=O)N[C@H](C)c3ccc(C(F)(F)F)nc3)N=C2c2ccc(C)cc2)CC1 [Compound 19]
  IC50: 3.86 µM

## Cc1ccc(C2=NN(C(=O)N[C@H](C)c3ccc(C(F)(F)F)nc3)C[C@H]2N2CCCC2=O)cc1 [Compound 21a]
  IC50: 0.085 µM

## Cc1ccc(C2=NN(C(=O)N[C@H](C)c3ccc(C(F)(F)F)nc3)C[C@H]2N2CCOC2=O)nc1 [Compound 23a, (R)-4-(2-oxooxazolidin-3-yl)-3-(5-methylpyridin-2-yl)-N-((R)-1-(6-(trifluoromethyl)pyridin-3-yl)ethyl)-4,5-dihydro-1H-pyrazol-1-carboxamide]
  IC50: 0.046 µM

## C[C@@H](NC(=O)N1C[C@H](N2CCOCC2=O)C(c2ccc(F)cc2)=N1)c1ccc(C(F)(F)F)nc1 [Compound 24, (S)-4-(3-oxomorpholin-4-y])-3-(4-fluorophenyl)-N-((R)-1-(2-(6-(trifluoromethyl)pyridin-3-yl)ethyl)-4,5-dihydro-1H-pyrazol-1-carboxamide]
  IC50: 0.212 µM

## C[C@@H](NC(=O)N1C[C@@H](N2CCOCC2=O)C(c2ccc(F)cc2)=N1)c1ccc(C(F)(F)F)nc1 [Compound 24a]
  IC50: 0.145 µM

## CC(=O)N(C)[C@H]1CN(C(=O)N[C@H](C)c2ccc(C(F)(F)F)nc2)N=C1c1ccc(C)cc1 [Compound 25]
  IC50: 0.158 µM

## CC(=O)N(C)[C@@H]1CN(C(=O)N[C@H](C)c2ccc(C(F)(F)F)nc2)N=C1c1ccc(C)cc1 [Compound 25a]
  IC50: 0.112 µM

## Cc1ccc(C2=NN(C(=O)N[C@H](C)c3cnc(C(F)(F)F)cn3)C[C@@H]2N2CCOCC2=O)cc1 [Compound 26]
  IC50: 0.143 µM

## Cc1ccc(C2=NN(C(=O)N[C@H](C)c3cnc(C(F)(F)F)cn3)C[C@H]2N2CCOCC2=O)cc1 [Compound 26a]
  IC50: 0.332 µM

## Cc1ccc(C2=NN(C(=O)N[C@H](C)c3cnc(C)cn3)C[C@@H]2N2CCOC2=O)cc1 [Compound 27]
  IC50: 0.389 µM

## Cc1ccc(C2=NN(C(=O)N[C@H](C)c3cnc(C)cn3)C[C@H]2N2CCOC2=O)cc1 [Compound 27a]
  IC50: 0.257 µM

## Cc1cnc([C@@H](C)NC(=O)N2C[C@H](N3CCCC3=O)C(c3ccc(F)cc3)=N2)cn1 [Compound 28, (S)-4-(2-oxopyrrolidin-1-yl)-3-(4-fluorophenyl)-N-((R)-1-(5-methylpyrazin-2-yl)ethyl)-4,5-dihydro-1H-pyrazol-1-carboxamide]
  IC50: 0.218 µM

## Cc1cnc([C@@H](C)NC(=O)N2C[C@@H](N3CCCC3=O)C(c3ccc(F)cc3)=N2)cn1 [Compound 28a, (R)-4-(2-oxopyrrolidin-1-yl)-3-(4-fluorophenyl)-N-((R)-1-(5-methylpyrazin-2-yl)ethyl)-4,5-dihydro-1H-pyrazol-1-carboxamide]
  IC50: 0.165 µM

## COc1ccc([C@@H](C)NC(=O)N2C[C@H](N3CCOC3=O)C(c3ccc(Cl)cc3)=N2)nn1 [Compound 29, (S)-4-(2-oxooxazolidin-3-yl)-3-(4-chlorophenyl)-N-((R)-1-(6-(methoxy)pyridazin-3-yl)ethyl)-4,5-dihydro-1H-pyrazol-1-carboxamide]
  IC50: 0.152 µM

## COc1ccc([C@@H](C)NC(=O)N2C[C@@H](N3CCOC3=O)C(c3ccc(Cl)cc3)=N2)nn1 [Compound 29a, (R)-4-(2-oxooxazolidin-3-yl)-3-(4-chlorophenyl)-N-((R)-1-(6-(methoxy)pyridazin-3-yl)ethyl)-4,5-dihydro-1H-pyrazol-1-carboxamide]
  IC50: 0.105 µM

## Cc1ccc(C2=NN(C(=O)N[C@H](C)c3cnc(C(F)(F)F)nc3)C[C@@H]2N2CCCC2=O)cc1 [Compound 32, (S)-4-(2-oxopyrrolidin-1-yl)-3-(4-methylphenyl)-N-((R)-1-(2-(trifluoromethyl)pyrimidin-5-yl)ethyl)-4,5-dihydro-1H-pyrazol-1-carboxamide]
  IC50: 0.127 µM

## C[C@@H](NC(=O)N1C[C@H](N2CCOCC2=O)C(c2ccc(F)cc2)=N1)c1cnc(C(F)(F)F)nc1 [Compound 33, (S)-4-(3-oxomorpholin-4-yl)-3-(4-fluorophenyl)-N-((R)-1-(2-(trifluoromethyl)pyrimidin-5-yl)ethyl)-4,5-dihydro-1H-pyrazol-1-carboxamide]
  IC50: 0.254 µM

## C[C@@H](NC(=O)N1C[C@@H](N2CCOCC2=O)C(c2ccc(F)cc2)=N1)c1cnc(C(F)(F)F)nc1 [Compound 33a, (R)-4-(3-oxomorpholin-4-yl)-3-(4-fluorophenyl)-N-((R)-1-(2-(trifluoromethyl)pyrimidin-5-yl)ethyl)-4,5-dihydro-1H-pyrazol-1-carboxamide]
  IC50: 0.365 µM

## CC(=O)N(C)[C@H]1CN(C(=O)N[C@H](C)c2cnc(C(F)(F)F)nc2)N=C1c1ccc(C)cc1 [Compound 34, (S)-4-(N-methylacetamido)-3-(4-methylphenyl)-N-((R)-1-(2-(trifluoromethyl)pyrimidin-5-yl)ethyl)-4,5-dihydro-1H-pyrazol-1-carboxamide]
  IC50: 0.169 µM

## CC(=O)N(C)[C@@H]1CN(C(=O)N[C@H](C)c2cnc(C(F)(F)F)nc2)N=C1c1ccc(C)cc1 [Compound 34a, (R)-4-(N-methylacetamido)-3-(4-methylphenyl)-N-((R)-1-(2-(trifluoromethyl)pyrimidin-5-yl)ethyl)-4,5-dihydro-1H-pyrazol-1-carboxamide]
  IC50: 0.231 µM

## C[C@@H](NC(=O)N1C[C@H](N2CCOCC2=O)C(c2ccc(Cl)cc2)=N1)c1cnc(C(F)(F)F)nc1 [Compound 35, (S)-4-(3-oxomorpholin-4-yl)-3-(4-chlorophenyl)-N-((R)-1-(2-(trifluoromethyl)pyrimidin-5-yl)ethyl)-4,5-dihydro-1H-pyrazol-1-carboxamide]
  IC50: 0.215 µM

## C[C@@H](NC(=O)N1C[C@@H](N2CCOCC2=O)C(c2ccc(Cl)cc2)=N1)c1cnc(C(F)(F)F)nc1 [Compound 35a, (R)-4-(3-oxomorpholin-4-yl)-3-(4-chlorophenyl)-N-((R)-1-(2-(trifluoromethyl)pyrimidin-5-yl)ethyl)-4,5-dihydro-1H-pyrazol-1-carboxamide]
  IC50: 0.451 µM

## COc1ccc(C2=NN(C(=O)N[C@H](C)c3cnc(C(F)(F)F)nc3)C[C@@H]2N2CCOCC2=O)cc1 [Compound 36, (S)-4-(3-oxomorpholin-4-yl)-3-(4-methoxyphenyl)-N-((R)-1-(2-(trifluoromethyl)pyrimidin-5-yl)ethyl)-4,5-dihydro-1H-pyrazol-1-carboxamide]
  IC50: 0.283 µM

## COc1ccc(C2=NN(C(=O)N[C@H](C)c3cnc(C(F)(F)F)nc3)C[C@H]2N2CCOCC2=O)cc1 [Compound 36a, (R)-4-(3-oxomorpholin-4-yl)-3-(4-methoxyphenyl)-N-((R)-1-(2-(trifluoromethyl)pyrimidin-5-yl)ethyl)-4,5-dihydro-1H-pyrazol-1-carboxamide]
  IC50: 0.422 µM

## CC(=O)N1CCN([C@H]2CN(C(=O)N[C@H](C)c3cnc(C(F)(F)F)nc3)N=C2c2ccc(C)cc2)CC1 [Compound 37, (S)-4-(4-acetylpiperazin-1-yl)-3-(4-methylphenyl)-N-((R)-1-(2-(trifluoromethyl)pyrimidin-5-yl)ethyl)-4,5-dihydro-1H-pyrazol-1-carboxamide]
  IC50: 3.73 µM

## Cc1ccc(C2=NN(C(=O)N[C@H](C)c3cnc(C(F)(F)F)nc3)C[C@@H]2N2CCN(C)CC2)cc1 [Compound 38]
  IC50: 2.67 µM

## Cc1ccc(C2=NN(C(=O)N[C@H](C)c3cnc(C(F)(F)F)nc3)C[C@@H]2N2CCOCC2)cc1 [Compound 39, (S)-4-(morpholin-4-yl)-3-(4-methylphenyl)-N-((R)-1-(2-(trifluoromethyl)pyrimidin-5-yl)ethyl)-4,5-dihydro-1H-pyrazol-1-carboxamide]
  IC50: 6.1 µM

## Cc1ccc(C2=NN(C(=O)N[C@H](C)c3cnc(C(F)(F)F)nc3)C[C@@H]2n2cccn2)cc1 [Compound 42]
  IC50: 4.91 µM

## Cc1ncc([C@@H](C)NC(=O)N2C[C@H](N3CCOC3=O)C(c3ccc(Cl)cc3)=N2)cn1 [Compound 43, (S)-4-(2-oxooxazolidin-3-yl)-3-(4-chlorophenyl)-N-((R)-1-(2-methylpyrimidin-5-yl)ethyl)-4,5-dihydro-1H-pyrazol-1-carboxamide]
  IC50: 0.331 µM

## C[C@@H](NC(=O)N1C[C@H](N2CCCC2=O)C(c2ccc(F)cc2)=N1)c1cnc(Cl)nc1 [Compound 44, (S)-4-(2-oxopyrrolidin-1-yl)-3-(4-fluorophenyl)-N-((R)-1-(2-chloropyrimidin-5-yl)ethyl)-4,5-dihydro-1 H-pyrazol-1-carboxamide]
  IC50: 0.233 µM
